pEC50, pIC50: −log10 of the molar value. Where two headings read alike, the source gives them in different places. Where no end group is shown, it is not given here. [ ]: non-standard residue; d: D form. pT = C[C@@H](OP(=O)(O)O)[C@H](N)C(=O)O; pS = N[C@@H](COP(=O)(O)O)C(=O)O
What was measured:
Huh-7.5.1 cells = conditions: single dose of 10 μM
Procedure: High content screening methodology and parameters. Monitoring of the total number of cells (based on nuclei staining) and number of virus infected cells (based on dsRNA and Nucleocapsid staining) was performed using the CellInsight CX7™ High Content Screening platform (Thermo Fisher™), as previously described (33042061). Shortly, nuclei are identified and counted using the 350′461 nm wavelength (Hoechst 33342™); cell debris and other particles are deducted based on a size filter tool. A Region of Interest (ROI, or “circle”) is then drawn around each host cell and validated against the bright field image to correspond with host cell membranes. The ROI encompasses the “spots”, where dsRNA (485/521 nm wavelength) and SARS-CoV-2 nucleocapsid (533/588 nm wavelength) are localized. Finally, the software (HCS Studio Cell Analysis Software™, version 4.0) identifies, counts and measures the pixel area and intensity of the spots within each circle. The fluorescent spot area measured within each cell (circle) is then added and quantified for each well. The total circle spot intensity of each well corresponds to the viral load, and is normalized to non-infected cells, and to cells infected with no compound. Nuclei stain (Hoechst 33342™) was used to quantify cell loss (due to cytotoxicity or loss of adherence), and to normalize the changes in viral load resulting from a decrease in cell numbers.

SARS-CoV-2 [1] = assay: High-content screen of GSK3β-focused library in SARS-CoV-2 infected Huh-7.5.1 cells (dsRNA or nucleocapsid); format: cell-based; conditions: for inhibition at 10 µM: Severe acute respiratory syndrome coronavirus 2, single dose of 10 μM, Huh-7.5.1 cells; for Activity (SARS-CoV-2): see TABLE A
HCoV-229E [2] = assay: High-content screen of GSK3β-focused library in HCoV-229E infected Huh-7.5.1 cells (intracellular dsRNA); format: cell-based, human coronavirus 229E (HCoV-229E); conditions: Human coronavirus 229E, single dose of 10 μM, Z′ 0.7
HCoV-229E [3] = assay: Dose-response of HCoV-229E viral load (dsRNA) in Huh-7.5.1 cells; format: cell-based, human coronavirus 229E (HCoV-229E); conditions: Human coronavirus 229E, read-out: ED50 (HCoV-229E)
SARS-CoV-2 [4] = assay: Dose-response of SARS-CoV-2 viral load (intracellular N protein) in Huh-7.5.1 cells; format: cell-based; conditions: Severe acute respiratory syndrome coronavirus 2, Huh-7.5.1, Huh-7.5.1 cells, intracellular N protein; read-out: ED50 (SARS-CoV-2)
SARS-CoV-2 [5] = system: SARS-CoV-2; parameters: effect on N protein phosphorylation and SARS-CoV-2 replication: dose or concentration left out as unconfirmed; conditions: cited from earlier work
[6] = molecular target: T1, glycogen synthase kinase-3-beta (Homo sapiens, UniProt P49841); assay: In vitro phosphorylation of nucleocapsid peptides, ADP-Glo, GSK3b; format: biochemical; conditions: for Relative Phosphorylation to No Kinase Control, GSK3b: Mean ± S.Dev. (n = 3), no kinase control = 100; for Relative Phosphorylation to Autophosphorylation Control (set at 100), GSK3b: peptide ~250 μM, 250 μM ATP, 30 min at 30° C., duplicate measurements
T1 construct: GST; purchased SignalChem Go9-10G

[7] = molecular target: T2, protein kinase C-alpha (PKC α) (Homo sapiens, UniProt P17252); assay: In vitro phosphorylation of nucleocapsid peptides, ADP-Glo, PKCa; format: biochemical; conditions: for Relative Phosphorylation to No Kinase Control, PKCa: Mean ± S.Dev. (n = 3), no kinase control = 100; for Relative Phosphorylation to Autophosphorylation Control (set at 100), PKCa: peptide ~250 μM, 250 μM ATP, 30 min at 30° C., duplicate measurements
T2 construct: GST; purchased SignalChem P61-18G

[8] = molecular target: cAMP-dependent protein kinase catalytic subunit-alpha (PKACa) (Homo sapiens, UniProt P17612); assay: In vitro phosphorylation of nucleocapsid peptides, ADP-Glo, PKACa; format: biochemical; conditions: peptide ~250 μM, 250 μM ATP, 30 min at 30° C.; duplicate measurements
PKCa + GSK3b = assay: In vitro phosphorylation of nucleocapsid peptides, ADP-Glo, PKCa + GSK3b combined; format: biochemical, human; conditions: Mean ± S.Dev. (n = 3); no kinase control = 100
[9] = molecular target: T3, extracellularly-regulated kinase-1 (ERK1) (Homo sapiens, UniProt P27361); assay: In vitro phosphorylation of nucleocapsid peptides, ADP-Glo, ERK1; format: biochemical; conditions: peptide ~250 μM, 250 μM ATP, 30 min at 30° C.; duplicate measurements
T3 construct: GST; purchased SignalChem M29-10G

[10] = molecular target: T4, casein kinase 1-gamma-1 (CK1γ1) (Homo sapiens, UniProt Q9HCP0); assay: In vitro phosphorylation of nucleocapsid peptides, ADP-Glo, CK1g1; format: biochemical; conditions: peptide ~250 μM, 250 μM ATP, 30 min at 30° C.; duplicate measurements
T4 construct: GST; purchased SignalChem C68-11G

casein kinase 1-delta = molecular target: T5, casein kinase 1-delta (Homo sapiens, UniProt P48730); assay: In vitro phosphorylation of nucleocapsid peptides, ADP-Glo, CK1d; format: biochemical; conditions: peptide ~250 μM, 250 μM ATP, 30 min at 30° C.; duplicate measurements
T5 construct: GST; purchased SignalChem C65-10G

[11] = molecular target: cyclin-dependent kinase 2/cyclin A2 (CDK2/A2) (Homo sapiens, UniProt P24941); assay: In vitro phosphorylation of nucleocapsid peptides, ADP-Glo, CDK2/cyclin A2; format: biochemical; conditions: peptide ~250 μM, 250 μM ATP, 30 min at 30° C.; duplicate measurements
[12] = molecular target: T6, casein kinase 2-alpha-1 (CK2a1) (Homo sapiens, UniProt P68400); assay: In vitro phosphorylation of nucleocapsid peptides, ADP-Glo, CK2a1; format: biochemical; conditions: peptide ~250 μM, 250 μM ATP, 30 min at 30° C.; duplicate measurements
T6 construct: GST; purchased SignalChem C70-10G

[13] = molecular target: T7, casein kinase 1-alpha-1 (CK1a1) (Homo sapiens, UniProt P48729); assay: In vitro phosphorylation of nucleocapsid peptides, ADP-Glo, CK1a1; format: biochemical; conditions: peptide ~250 μM, 250 μM ATP, 30 min at 30° C.; duplicate measurements
T7 construct: GST; purchased SignalChem C64-10G

[14] = Z′ 0.3, read-out: SARS-CoV-2 inhibition (% dsRNA)
[15] = average of screens 1 and 2, read-out: Average SARS-CoV-2 Nucleocapsid inhibition
[16] = screen 1, Z′ 0.7, read-out: SARS-CoV-2 inhibition (% Nucleocapsid) 1
[17] = screen 2, Z′ 0.5, read-out: SARS-CoV-2 inhibition (% Nucleocapsid) 2

T3 sequence (P27361 whole entry): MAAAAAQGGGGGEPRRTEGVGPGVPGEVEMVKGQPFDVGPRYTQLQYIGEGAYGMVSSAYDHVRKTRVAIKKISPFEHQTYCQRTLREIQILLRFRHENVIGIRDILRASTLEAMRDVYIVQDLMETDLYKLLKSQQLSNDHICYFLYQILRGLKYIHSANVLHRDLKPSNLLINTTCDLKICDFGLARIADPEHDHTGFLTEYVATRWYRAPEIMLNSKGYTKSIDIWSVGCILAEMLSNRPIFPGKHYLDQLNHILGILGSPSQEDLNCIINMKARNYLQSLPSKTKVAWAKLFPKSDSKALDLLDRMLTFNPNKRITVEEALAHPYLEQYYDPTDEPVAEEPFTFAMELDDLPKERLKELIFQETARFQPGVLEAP
T5 sequence (P48730 whole entry): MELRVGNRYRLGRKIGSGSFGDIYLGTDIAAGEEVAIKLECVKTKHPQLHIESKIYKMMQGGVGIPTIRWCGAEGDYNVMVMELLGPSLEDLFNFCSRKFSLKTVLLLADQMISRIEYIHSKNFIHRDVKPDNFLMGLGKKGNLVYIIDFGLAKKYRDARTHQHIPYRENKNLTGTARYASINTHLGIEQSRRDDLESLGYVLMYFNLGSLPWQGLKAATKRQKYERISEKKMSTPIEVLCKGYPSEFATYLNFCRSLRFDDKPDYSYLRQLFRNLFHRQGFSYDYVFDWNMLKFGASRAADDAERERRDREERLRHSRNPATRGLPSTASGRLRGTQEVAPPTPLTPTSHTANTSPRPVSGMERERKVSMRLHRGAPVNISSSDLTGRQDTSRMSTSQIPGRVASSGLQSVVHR
T6 sequence (P68400 whole entry): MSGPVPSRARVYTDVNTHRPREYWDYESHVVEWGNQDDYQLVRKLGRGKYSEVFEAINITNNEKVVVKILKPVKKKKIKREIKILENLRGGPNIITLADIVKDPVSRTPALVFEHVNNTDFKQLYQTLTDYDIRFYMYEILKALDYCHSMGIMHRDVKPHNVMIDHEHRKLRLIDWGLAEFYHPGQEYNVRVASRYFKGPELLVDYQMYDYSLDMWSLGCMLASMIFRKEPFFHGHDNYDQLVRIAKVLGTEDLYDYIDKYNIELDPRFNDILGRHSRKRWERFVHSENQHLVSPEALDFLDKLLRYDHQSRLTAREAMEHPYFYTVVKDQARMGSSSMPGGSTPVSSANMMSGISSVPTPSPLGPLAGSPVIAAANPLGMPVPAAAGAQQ
T1 sequence (P49841 whole entry): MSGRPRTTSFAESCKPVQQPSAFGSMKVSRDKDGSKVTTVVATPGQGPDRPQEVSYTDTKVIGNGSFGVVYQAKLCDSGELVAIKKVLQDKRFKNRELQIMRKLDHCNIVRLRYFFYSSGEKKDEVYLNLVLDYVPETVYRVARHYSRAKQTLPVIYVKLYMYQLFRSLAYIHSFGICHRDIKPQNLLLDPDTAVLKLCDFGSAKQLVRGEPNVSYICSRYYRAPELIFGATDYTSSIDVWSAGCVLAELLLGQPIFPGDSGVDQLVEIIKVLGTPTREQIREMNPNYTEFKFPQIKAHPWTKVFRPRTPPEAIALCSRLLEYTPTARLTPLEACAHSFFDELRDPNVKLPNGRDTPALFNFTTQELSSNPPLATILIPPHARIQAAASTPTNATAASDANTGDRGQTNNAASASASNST
T7 sequence (P48729 whole entry): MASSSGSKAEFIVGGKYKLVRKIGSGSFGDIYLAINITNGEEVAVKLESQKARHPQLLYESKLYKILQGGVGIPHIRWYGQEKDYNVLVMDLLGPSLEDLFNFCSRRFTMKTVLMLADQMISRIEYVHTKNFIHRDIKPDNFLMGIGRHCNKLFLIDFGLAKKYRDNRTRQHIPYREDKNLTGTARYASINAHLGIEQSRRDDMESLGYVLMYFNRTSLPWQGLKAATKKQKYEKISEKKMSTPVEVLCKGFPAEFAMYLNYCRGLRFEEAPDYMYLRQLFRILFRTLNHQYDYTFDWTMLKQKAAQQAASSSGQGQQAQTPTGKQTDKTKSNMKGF
T4 sequence (Q9HCP0 whole entry): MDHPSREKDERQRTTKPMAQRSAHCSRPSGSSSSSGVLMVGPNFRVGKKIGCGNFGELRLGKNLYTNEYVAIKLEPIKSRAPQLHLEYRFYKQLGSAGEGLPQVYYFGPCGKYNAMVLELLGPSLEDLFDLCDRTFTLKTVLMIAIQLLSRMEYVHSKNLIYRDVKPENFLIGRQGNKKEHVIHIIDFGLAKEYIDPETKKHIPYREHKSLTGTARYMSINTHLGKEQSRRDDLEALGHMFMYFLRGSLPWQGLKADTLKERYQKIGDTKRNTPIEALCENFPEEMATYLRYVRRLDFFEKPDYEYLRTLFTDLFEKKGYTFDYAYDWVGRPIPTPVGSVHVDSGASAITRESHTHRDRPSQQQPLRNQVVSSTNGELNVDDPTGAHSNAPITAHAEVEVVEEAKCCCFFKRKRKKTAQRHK

Compound	Average cell loss (%) (Huh-7.5.1 cells)	inhibition at 10 µM (SARS-CoV-2 [1]; [14]) [%]	inhibition at 10 µM (SARS-CoV-2 [1]; [15]) [%]	inhibition at 10 µM (SARS-CoV-2 [1]; [16]) [%]	inhibition at 10 µM (SARS-CoV-2 [1]; [17]) [%]	inhibition at 10 µM (HCoV-229E [2]) [%]	Relative Phosphorylation to No Kinase Control, GSK3b [6]	Relative Phosphorylation to Autophosphorylation Control (set at 100), GSK3b [6]	Relative Phosphorylation to No Kinase Control, PKCa [7]	Relative Phosphorylation to Autophosphorylation Control (set at 100), PKCa [7]	Relative Phosphorylation to Autophosphorylation Control (set at 100), PKACa [8]	further results
COc1ccc(-n2cnc3ccc(-c4nnc(SCc5cccc(C#N)c5)o4)cc32)cc1 [Compound P-0780332]	9.2	0.6	0	0	0	0	–	–	–	–	–	Activity (SARS-CoV-2) (SARS-CoV-2 [1]): inactive (see TABLE A)
CSc1ccc(-n2cnc3ccc(-c4nnc(CCc5cccc(C(F)(F)F)c5)o4)cc32)cc1 [Compound P-3817632]	12.7	100	71.4	70.8	72	87.7	–	–	–	–	–	Activity (SARS-CoV-2) (SARS-CoV-2 [1]): active (see TABLE A)
O=C(NCc1ccccn1)Nc1cc(N2CC(CCc3ccccc3)CC2=O)ccn1 (stereo not shown) [Compound P-4423632]	12.0	100	95.2	98	92.4	43.2	–	–	–	–	–	Activity (SARS-CoV-2) (SARS-CoV-2 [1]): active (see TABLE A)
Cc1nnc(-c2ccc3occ(-c4ccc([S+](C)[O-])c(OC(F)(F)F)c4)c3c2)o1 (stereo not shown) [Compound P-5782442]	16.1	100	93.8	93.3	94.4	60	–	–	–	–	–	Activity (SARS-CoV-2) (SARS-CoV-2 [1]): active (see TABLE A)
C[S+]([O-])c1ccc(-c2coc3ccc(-c4nnc(SCc5cccc(F)c5)o4)cc23)cc1 (stereo not shown) [Compound P-7657632]	25.4	100	93.1	100	86.2	100	–	–	–	–	–	pEC50 (HCoV-229E [3]): ~5.52; pEC50 (SARS-CoV-2 [4]): ~5.52
CSc1ccc(-c2coc3ccc(-c4nnc(N)o4)cc23)cc1Cl [Compound P-9071942]	29.9	100	94.5	100	89.1	94.2	–	–	–	–	–	pEC50 (HCoV-229E [3]): ~5.52; pEC50 (SARS-CoV-2 [4]): ~5.52
Cn1cc(C2=C(c3cn(C4CCN(Cc5ccccn5)CC4)c4ccccc34)C(=O)NC2=O)c2ccccc21 [Enzastaurin]	–	–	–	–	–	–	–	–	–	–	–	effect on infection (SARS-CoV-2 [5]; A549-ACE2 human lung cancer-derived cell line and Vero E6 cells, reference [7]): reduced infection; effect on N protein phosphorylation and SARS-CoV-2 replication (SARS-CoV-2 [5]; reference [7]): blocked N protein phosphorylation and SARS-CoV-2 replication
[Cl-].[Li+] [Lithium chloride]	–	–	–	–	–	–	–	–	–	–	–	pIC50 (SARS-CoV-2 [5]; from reference [7], read-out: IC50 to inhibit N protein phosphorylation and SARS-CoV-2 replication in cells): 2.00
RGGSQASSRSS(pS)RS (RGGSQASSRSS[pS]RS) [SCV2-N [177-190]-pS188, synthetic peptide modeled after SARS-CoV-2 nucleocapsid protein phosphorylation sites, pre-phosphorylated at S188]	–	–	–	–	–	–	24,585 ± 645	1209	3861 ± 71	389	128	–
RGGSQASSRSSSRS [SCV2-N [177-190], synthetic peptide modeled after SARS-CoV-2 nucleocapsid protein phosphorylation sites]	–	–	–	–	–	–	2161 ± 63	107	13,714 ± 502	1320	162	Relative Phosphorylation to No Kinase Control, PKCa + GSK3b (PKCa + GSK3b): 3572 ± 22
RNSTPGSSRGT(pS)PAR (RNSTPGSSRGT[pS]PAR) [SCV2-N [195-209]-pS206, synthetic peptide modeled after SARS-CoV-2 nucleocapsid protein phosphorylation sites, pre-phosphorylated at S206]	–	–	–	–	–	–	24,082 ± 381	1068	1531 ± 47	–	205	Relative Phosphorylation to Autophosphorylation Control (set at 100), ERK1 [9]: 100; Relative Phosphorylation to Autophosphorylation Control (set at 100), CK1g1 [10]: 105; Relative Phosphorylation to Autophosphorylation Control (set at 100), CK1d (casein kinase 1-delta): 105; Relative Phosphorylation to Autophosphorylation Control (set at 100), CDK2 + Cyclin A2 [11]: 100
SQASSRSSSR(pS)RNS (SQASSRSSSR[pS]RNS) [SCV2-N [180-193]-pS190, synthetic peptide modeled after SARS-CoV-2 nucleocapsid protein phosphorylation sites, pre-phosphorylated at S190]	–	–	–	–	–	–	2957 ± 3	111	4161 ± 66	418	312	Relative Phosphorylation to Autophosphorylation Control (set at 100), CK2a1 [12]: 100
SQASSRSSSRSRNS [SCV2-N [180-193], synthetic peptide modeled after SARS-CoV-2 nucleocapsid protein phosphorylation sites]	–	–	–	–	–	–	2407 ± 23	102	16,366 ± 261	1278	123	Relative Phosphorylation to No Kinase Control, PKCa + GSK3b (PKCa + GSK3b): 3836 ± 41; Relative Phosphorylation to Autophosphorylation Control (set at 100), CK2a1 [12]: 101
SSRSRNSSRNS(pT)PG (SSRSRNSSRNS[pT]PG) [SCV2-N [187-200]-pT198, synthetic peptide modeled after SARS-CoV-2 nucleocapsid protein phosphorylation sites, pre-phosphorylated at T198]	–	–	–	–	–	–	23,031 ± 486	1042	7032 ± 319	553	157	Relative Phosphorylation to Autophosphorylation Control (set at 100), CK1a1 [13]: 250; Relative Phosphorylation to Autophosphorylation Control (set at 100), ERK1 [9]: 100; Relative Phosphorylation to Autophosphorylation Control (set at 100), CK2a1 [12]: 102; Relative Phosphorylation to Autophosphorylation Control (set at 100), CK1d (casein kinase 1-delta): 152; Relative Phosphorylation to Autophosphorylation Control (set at 100), CDK2 + Cyclin A2 [11]: 101
SSRSRNSSRNSTPG [SCV2-N [187-200], synthetic peptide modeled after SARS-CoV-2 nucleocapsid protein phosphorylation sites]	–	–	–	–	–	–	2573 ± 49	108	12,687 ± 486	1080	485	Relative Phosphorylation to Autophosphorylation Control (set at 100), CK1a1 [13]: 145; Relative Phosphorylation to Autophosphorylation Control (set at 100), ERK1 [9]: 100; Relative Phosphorylation to No Kinase Control, PKCa + GSK3b (PKCa + GSK3b): 3692 ± 61; Relative Phosphorylation to Autophosphorylation Control (set at 100), CK2a1 [12]: 103; Relative Phosphorylation to Autophosphorylation Control (set at 100), CK1d (casein kinase 1-delta): 100; Relative Phosphorylation to Autophosphorylation Control (set at 100), CDK2 + Cyclin A2 [11]: 100

Reference: patent US20250042887A1, “GLYCOGEN SYNTHASE KINASE-3 (GSK3) INHIBITOR COMPOUNDS FOR USE AS ANTIVIRAL AGENTS” (priority 2021, published 2025)
